PubChem BioAssay AID485337 (Sanford-Burnham Center for Chemical Genomics, 2010)
Activity calls are given as the source filed them. The rule behind the calls is not given here.

The molecules below were run against SUMO-conjugating enzyme UBC9 (Homo sapiens) (UniProt P63279) (assay: UBC9-dependent SUMO conjugation inhibition – biochemical, HTRF, set 2, SAR follow-up (AID 485337)). Settings: in vitro SUMOylation, HTRF read-out.
Sequence of SUMO-conjugating enzyme UBC9 (Homo sapiens) (P63279 whole entry, looked up): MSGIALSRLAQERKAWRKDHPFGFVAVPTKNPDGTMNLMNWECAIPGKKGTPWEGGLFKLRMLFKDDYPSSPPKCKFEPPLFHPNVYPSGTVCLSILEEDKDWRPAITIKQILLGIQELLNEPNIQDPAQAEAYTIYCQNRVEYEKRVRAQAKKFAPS

| Structure (SMILES) | IC50 |
| --- | --- |
| CCCCn1c(NC(C)=O)c(C#N)c2nc3ccccc3nc21 | 3.39 µM |
| N#Cc1c(NC(=O)c2ccccc2Cl)n(Cc2ccccc2)c2nc3ccccc3nc12 | 12.2 µM |
| COc1cc(/C=C2\C(=O)N(c3ccccc3)N=C2C)ccc1OCc1ccccc1 | > 100 µM (inactive) |
| COc1ccc2c(c1)C(NC(C)=O)C(=O)N2CC1COc2ccccc2O1 (centres undefined) | > 100 µM (inactive) |
| CCCCn1c(NC(=O)c2ccco2)c(C#N)c2nc3ccccc3nc21 | 8.06 µM |
| CCCCn1c(NC(=O)c2ccco2)c(S(=O)(=O)c2ccc(C)cc2)c2nc3ccccc3nc21 | 12.5 µM |
| COc1ccc2c(c1)C(=O)C(=O)N2CCN1CCOCC1 | > 100 µM (inactive) |
| COc1ccc2c(c1)C(NC(C)=O)C(=O)N2CCOc1ccccc1 (centres undefined) | > 100 µM (inactive) |
| CCCN1C(=O)C(NC(C)=O)c2cc(OC)ccc21 (centres undefined) | > 100 µM (inactive) |
| COCCNC(=O)c1c(NC(=O)c2ccccc2)n(Cc2ccccc2)c2nc3ccccc3nc12 | 13.4 µM |
| COCCn1c(NC(=O)c2ccc(Cl)cc2)c(S(=O)(=O)c2ccc(C)cc2)c2nc3ccccc3nc21 | 78.8 µM |
| N#Cc1c(NC(=O)c2ccccc2Cl)n(C2CCCCC2)c2nc3ccccc3nc12 | 23.1 µM |
| COc1cc(/C=C2\C(=O)N(c3ccccc3)N=C2C)ccc1OC(=O)c1cccs1 | > 100 µM (inactive) |
| CC(=O)NC1C(=O)N(CCN2CCOCC2)c2ccc(C)cc21 (centres undefined) | > 100 µM (inactive) |
| Nc1c(C(=O)NCc2ccco2)c2nc3ccccc3nc2n1Cc1ccccc1 | 31.1 µM |
| COc1cc(/C=C2\C(=O)N(c3ccccc3)N=C2C)ccc1O | > 100 µM (inactive) |
| COc1ccc2c(c1)C(NC(C)=O)C(=O)N2CCN1CCOCC1 (centres undefined) | 6.06 µM |
| CCCCn1c(NC(=O)CC)c(S(=O)(=O)c2ccc(C)cc2)c2nc3ccccc3nc21 | inactive |
| CCCCn1c(NC(=O)c2ccccc2)c(C#N)c2nc3ccccc3nc21 | 16.4 µM |
| COc1ccc2c(c1)C(NC(C)=O)C(=O)N2CCc1ccccc1 (centres undefined) | > 100 µM (inactive) |
| S=c1[nH]nc(-c2cc(-c3ccccc3)n[nH]2)n1N=Cc1ccc(Br)s1 | inactive |
| CCCCn1c(NC(=O)c2ccc(Cl)cc2)c(C#N)c2nc3ccccc3nc21 | 22.6 µM |
| Cc1cc(C)c2c(c1)C(=O)C(=O)N2CCN1CCOCC1 | > 100 µM (inactive) |
| CCCCNC(=O)c1c(NC(=O)c2ccccc2)n(Cc2ccccc2)c2nc3ccccc3nc12 | 30.6 µM |
| CCCCn1c(NC(=O)c2ccccc2Cl)c(S(=O)(=O)c2ccccc2)c2nc3ccccc3nc21 | 37.6 µM |
| COc1ccc(CN2C(=O)C(NC(C)=O)c3ccccc32)cc1 (centres undefined) | > 100 µM (inactive) |
| CCCCn1c(N)c(S(=O)(=O)c2ccc(C)cc2)c2nc3ccccc3nc21 | 9.28 µM |
| CCCCCn1c(NC(=O)c2ccco2)c(C(=O)OCC)c2nc3ccccc3nc21 | 14.8 µM |
| CCCCn1c(NC(=O)c2ccccc2)c(S(=O)(=O)c2ccc(C)cc2)c2nc3ccccc3nc21 | inactive |
